Source: ChEMBL document CHEMBL1201862, “PubChem BioAssay data set” (2004)
Calls of active or inactive are those of the source.

Legend:
[1] = microbe, parasite or virus in culture; assay type: functional; conditions: Mycobacterium tuberculosis
[2] = growth suppression of PTEN-null colon cells, dose response, cell-based, HCT116 PTEN knockout (AID 1047); assay type: functional;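 further: HCT116 colon tumor cells with PTEN knocked out; cells exposed to compound for 60 hours before readout; potency for loss of cell viability measured by luminescence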
[3] = growth suppression of beta-catenin-knockout colon cells, dose response, cell-based, HCT116, human colon tumor (AID 1045); assay type: functional;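 further: HCT116 colon tumor cells with beta catenin knocked out; cells exposed to compound for 60 hours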
[4] = cytotoxicity toward NIH3T3 fibroblasts, dose response, counter-screen, cell-based, ATP luminescence, mouse fibroblasts (AID 2010); assay type: functional;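 further: cells exposed to compound for about 90 hours before reading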
[5] = inhibitors of intracellular T. cruzi replication, confirmation, NIH3T3 host cells, beta-gal luminescence (AID 2044); assay type: functional, cell-based;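 further: intracellular parasites grown in NIH/3T3 mouse fibroblasts as host cells; luminescent beta-galactosidase reporter signal from transgenic T. cruzi replicating inside host cells; inhibitors lower the luminescence signal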
[6] = molecular target: T1, Fatty acid synthase (Homo sapiens, UniProt P49327); experiment: FAS thioesterase domain inhibitors, dose response, biochemical, kinetic fluorescence intensity (AID 624326); assay type: functional;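 further: rate of fluorescence rise from hydrolysis of a fluorogenic O-methyl fluorescein ester substrate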
[7] = molecular target: T1, Fatty acid synthase; experiment: FAS thioesterase domain inhibitors, dose response, biochemical, endpoint fluorescence intensity, uHTS hits (AID 624327); assay type: functional;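 further: fluorescence from hydrolysis of an O-methyl fluorescein acyl ester substrate by the enzyme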
[8] = test system: BJ; experiment: cells; assay type: functional, cell-based; conditions: Homo sapiens
[9] = Luminescence Cell-Based Dose Confirmation HTS to Identify Inhibitors of Platelet Dense Granule Release. [Related pubchem assays: 1663 (Primary HTS), 1678 (Summary of Project)]; assay type: functional
[10] = inhibitors of SNCA 5'UTR-driven reporter translation, confirmation, H4 neuroglioma cells, luminescence (AID 1988); assay type: functional, cell-based
[11] = molecular target: T2, Replicative DNA helicase DnaB (Mycobacterium tuberculosis, UniProt P9WMR3); experiment: DnaB intein splicing inhibitors, dose response, biochemical, cell-free fluorescence (AID 449749); assay type: functional
T2 sequence (P9WMR3 whole entry): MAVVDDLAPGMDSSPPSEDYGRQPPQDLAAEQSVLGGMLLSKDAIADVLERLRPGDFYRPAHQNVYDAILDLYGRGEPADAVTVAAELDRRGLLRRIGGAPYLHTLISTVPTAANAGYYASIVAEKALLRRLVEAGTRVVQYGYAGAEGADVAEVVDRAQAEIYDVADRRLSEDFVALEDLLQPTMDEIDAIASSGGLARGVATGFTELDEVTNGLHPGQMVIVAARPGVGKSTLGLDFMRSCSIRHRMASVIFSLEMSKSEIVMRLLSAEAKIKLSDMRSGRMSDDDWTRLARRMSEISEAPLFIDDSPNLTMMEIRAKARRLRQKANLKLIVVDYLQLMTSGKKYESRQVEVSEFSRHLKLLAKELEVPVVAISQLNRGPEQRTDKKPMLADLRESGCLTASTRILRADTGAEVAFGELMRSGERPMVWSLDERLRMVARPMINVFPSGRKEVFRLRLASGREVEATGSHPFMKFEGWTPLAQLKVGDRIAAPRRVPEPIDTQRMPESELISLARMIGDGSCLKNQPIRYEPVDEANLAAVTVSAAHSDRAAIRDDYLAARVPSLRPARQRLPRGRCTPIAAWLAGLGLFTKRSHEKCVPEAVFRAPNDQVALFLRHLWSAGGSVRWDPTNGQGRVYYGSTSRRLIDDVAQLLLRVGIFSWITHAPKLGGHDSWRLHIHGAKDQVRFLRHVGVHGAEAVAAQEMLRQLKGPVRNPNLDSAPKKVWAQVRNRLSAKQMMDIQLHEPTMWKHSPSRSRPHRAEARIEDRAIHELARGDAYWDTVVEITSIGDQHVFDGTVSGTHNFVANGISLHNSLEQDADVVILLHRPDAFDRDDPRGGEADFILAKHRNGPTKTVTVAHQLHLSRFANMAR

[12] = test system: BJ; experiment: cytotoxicity toward BJ-TERT-LT-ST fibroblasts, dose response, cell-based, RAS-independent, luminescence (AID 1935); assay type: functional; conditions: Homo sapiens;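 further: BJ fibroblasts immortalized with TERT plus LT and ST oncogenes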
[13] = Luminescence Cell-Based Dose Response HTS to Identify Inhibitors of 5'UTR Stem-Loop Driven Prion Protein mRNA Translation in H4 Neuroglioblastoma Cells. [Related pubchem assays: 1827 (Project Summary), 1813 (Primary HTS)]; assay type: functional
[14] = inhibitors of firefly luciferase expression or activity, dose response, H4 neuroglioma cells, luminescence (AID 1990); assay type: functional, cell-based
[15] = cells; assay type: functional
[16] = THP-1 cell cytotoxicity, dose response, cytotoxicity control for non-replicating M. tuberculosis project (AID 489025); assay type: functional
[17] = molecular target: Luciferin 4-monooxygenase (Photinus pyralis, UniProt P08659); experiment: firefly luciferase enzyme inhibitors, dose response, biochemical, luminescence (AID 1891)
[18] = molecular target: T3, Protein RecA (Mycobacterium tuberculosis, UniProt P9WHJ3); experiment: Fluorescence Cell-Free Homogeneous Dose Retest to Identify Inhibitors of RecA-Intein Splicing Activity. [Related pubchem assays (depositor defined):AID2097, AID2223, AID489010, AID492950]; assay type: functional
T3 sequence (P9WHJ3 whole entry): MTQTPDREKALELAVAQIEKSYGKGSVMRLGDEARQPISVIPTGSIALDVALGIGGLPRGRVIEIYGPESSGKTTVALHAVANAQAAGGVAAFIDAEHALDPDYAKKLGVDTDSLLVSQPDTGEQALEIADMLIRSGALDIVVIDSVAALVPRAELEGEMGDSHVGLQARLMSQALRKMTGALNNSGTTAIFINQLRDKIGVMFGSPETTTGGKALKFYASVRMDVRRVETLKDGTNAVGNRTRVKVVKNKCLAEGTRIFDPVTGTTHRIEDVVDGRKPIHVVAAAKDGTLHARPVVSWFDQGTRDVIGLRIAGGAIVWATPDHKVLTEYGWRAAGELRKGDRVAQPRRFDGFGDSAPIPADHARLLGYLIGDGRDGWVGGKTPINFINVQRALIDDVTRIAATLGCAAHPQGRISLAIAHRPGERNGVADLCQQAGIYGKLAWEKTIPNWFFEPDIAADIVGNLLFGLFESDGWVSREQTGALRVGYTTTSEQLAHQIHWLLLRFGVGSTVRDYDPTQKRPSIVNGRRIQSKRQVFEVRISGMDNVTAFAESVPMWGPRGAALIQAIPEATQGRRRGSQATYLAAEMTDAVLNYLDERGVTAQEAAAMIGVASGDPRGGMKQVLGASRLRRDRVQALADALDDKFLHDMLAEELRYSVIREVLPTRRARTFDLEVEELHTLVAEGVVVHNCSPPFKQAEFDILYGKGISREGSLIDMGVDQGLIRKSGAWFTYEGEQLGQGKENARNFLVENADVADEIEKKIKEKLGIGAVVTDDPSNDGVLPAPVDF

[19] = cytotoxicity toward DRD oncogenic fibroblasts, dose response, cell-based, non-viral oncogenic, luminescence (AID 1934); assay type: functional; conditions: Homo sapiens
[20] = test system: BJ; experiment: cytotoxicity toward BJ-TERT fibroblasts, dose response, cell-based, RAS-independent, luminescence (AID 1933); assay type: functional; conditions: Homo sapiens
[21] = HepG2 cell cytotoxicity, dose response, cytotoxicity control for Shn3 inhibitor project, CellTiter-Glo, cherry-picked (AID 624134); assay type: functional, cell-based
[22] = control 3'UTR Renilla luciferase suppression, dose response, counter-screen for Shn3 inhibitor project, cell-based, Clone20-Shn3RL, cherry-picked (AID 624133); assay type: functional
[23] = Shn3 3'UTR reporter inhibitors, dose response, cell-based, Clone20 osteoblasts, firefly luciferase, cherry-picked (AID 624132); assay type: functional;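 further: firefly luciferase luminescence from reporter carrying the Shn3 3'UTR in osteoblasts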
[24] = test system: H9c2; experiment: cells; assay type: functional, cell-based; conditions: Rattus norvegicus, H9c2, Myocardium;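 further: confirmatory concentration-response retest of ultra-high-throughput screening hits for modulation of myocardial damage; cell death induced by hydrogen peroxide oxidative stress; compound pretreatment for 60 min then peroxide exposure for 2 h; potency is for protecting the cells against peroxide damage rather than for killing them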
[25] = molecular target: Voltage-dependent T-type calcium channel subunit alpha-1H (Homo sapiens, UniProt O95180); assay type: functional;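 further: channel activity triggered by adding a high calcium stimulation buffer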

T1 sequence (P49327 whole entry, the tested form may be a part): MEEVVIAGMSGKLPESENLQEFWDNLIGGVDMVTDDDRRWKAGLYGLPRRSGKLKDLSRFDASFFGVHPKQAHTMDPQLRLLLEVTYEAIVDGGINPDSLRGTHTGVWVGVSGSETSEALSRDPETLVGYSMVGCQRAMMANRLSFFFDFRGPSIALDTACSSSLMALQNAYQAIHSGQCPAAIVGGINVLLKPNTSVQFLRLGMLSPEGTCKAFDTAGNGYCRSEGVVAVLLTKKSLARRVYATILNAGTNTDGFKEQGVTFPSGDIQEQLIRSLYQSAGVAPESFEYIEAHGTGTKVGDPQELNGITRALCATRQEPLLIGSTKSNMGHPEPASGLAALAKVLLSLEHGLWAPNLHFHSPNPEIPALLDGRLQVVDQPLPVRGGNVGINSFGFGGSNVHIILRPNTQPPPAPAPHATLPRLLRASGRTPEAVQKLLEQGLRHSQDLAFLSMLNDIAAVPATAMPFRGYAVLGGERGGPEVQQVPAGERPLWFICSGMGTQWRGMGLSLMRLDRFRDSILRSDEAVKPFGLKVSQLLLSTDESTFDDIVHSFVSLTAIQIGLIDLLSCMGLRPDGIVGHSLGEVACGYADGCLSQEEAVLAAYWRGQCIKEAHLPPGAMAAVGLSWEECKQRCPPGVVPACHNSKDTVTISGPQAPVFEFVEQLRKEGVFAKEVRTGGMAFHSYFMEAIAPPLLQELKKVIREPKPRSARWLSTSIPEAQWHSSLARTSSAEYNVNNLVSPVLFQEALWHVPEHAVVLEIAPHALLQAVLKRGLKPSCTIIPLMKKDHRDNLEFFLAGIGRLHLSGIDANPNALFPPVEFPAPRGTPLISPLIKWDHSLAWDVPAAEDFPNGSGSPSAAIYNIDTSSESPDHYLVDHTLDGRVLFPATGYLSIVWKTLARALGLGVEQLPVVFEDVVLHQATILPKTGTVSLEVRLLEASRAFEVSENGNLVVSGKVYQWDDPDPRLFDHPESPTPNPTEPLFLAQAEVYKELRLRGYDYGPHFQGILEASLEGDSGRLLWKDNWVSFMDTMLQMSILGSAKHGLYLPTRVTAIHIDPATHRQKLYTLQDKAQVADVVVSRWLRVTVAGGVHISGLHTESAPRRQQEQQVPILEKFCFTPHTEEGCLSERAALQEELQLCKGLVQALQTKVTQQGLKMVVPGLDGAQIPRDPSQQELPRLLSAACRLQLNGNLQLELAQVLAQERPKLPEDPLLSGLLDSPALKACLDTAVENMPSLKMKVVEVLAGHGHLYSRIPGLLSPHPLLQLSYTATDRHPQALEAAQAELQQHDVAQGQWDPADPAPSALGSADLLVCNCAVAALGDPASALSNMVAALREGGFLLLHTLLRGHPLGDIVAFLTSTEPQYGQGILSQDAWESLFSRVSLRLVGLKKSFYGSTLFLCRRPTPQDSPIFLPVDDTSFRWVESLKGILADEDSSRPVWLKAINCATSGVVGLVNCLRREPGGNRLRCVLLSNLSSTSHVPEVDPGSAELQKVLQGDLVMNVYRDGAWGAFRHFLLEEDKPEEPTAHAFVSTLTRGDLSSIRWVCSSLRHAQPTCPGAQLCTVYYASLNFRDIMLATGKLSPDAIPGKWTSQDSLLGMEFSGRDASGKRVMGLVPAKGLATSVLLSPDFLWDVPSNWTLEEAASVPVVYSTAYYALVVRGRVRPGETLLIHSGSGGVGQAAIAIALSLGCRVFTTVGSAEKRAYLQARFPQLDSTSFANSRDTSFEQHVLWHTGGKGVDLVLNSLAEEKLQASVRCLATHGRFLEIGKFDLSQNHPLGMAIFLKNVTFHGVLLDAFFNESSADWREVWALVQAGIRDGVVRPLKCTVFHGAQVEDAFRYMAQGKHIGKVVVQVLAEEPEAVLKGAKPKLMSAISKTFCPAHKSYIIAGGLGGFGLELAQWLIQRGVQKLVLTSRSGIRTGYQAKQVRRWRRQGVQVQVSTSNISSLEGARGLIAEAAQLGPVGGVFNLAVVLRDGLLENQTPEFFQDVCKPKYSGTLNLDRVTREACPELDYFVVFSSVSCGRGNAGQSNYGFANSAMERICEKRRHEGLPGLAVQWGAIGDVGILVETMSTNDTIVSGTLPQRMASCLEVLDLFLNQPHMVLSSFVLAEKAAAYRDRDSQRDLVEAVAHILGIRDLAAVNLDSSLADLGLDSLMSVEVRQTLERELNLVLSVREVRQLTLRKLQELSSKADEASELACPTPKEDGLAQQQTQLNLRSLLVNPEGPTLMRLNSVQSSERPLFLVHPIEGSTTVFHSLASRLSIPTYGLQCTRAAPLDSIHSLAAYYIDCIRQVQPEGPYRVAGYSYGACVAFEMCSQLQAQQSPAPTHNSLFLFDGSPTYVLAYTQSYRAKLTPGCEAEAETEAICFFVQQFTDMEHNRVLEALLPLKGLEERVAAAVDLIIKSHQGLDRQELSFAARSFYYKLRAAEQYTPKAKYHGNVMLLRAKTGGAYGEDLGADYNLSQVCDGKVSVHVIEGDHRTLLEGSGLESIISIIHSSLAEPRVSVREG
Chain of Luciferin 4-monooxygenase (P08659 whole entry): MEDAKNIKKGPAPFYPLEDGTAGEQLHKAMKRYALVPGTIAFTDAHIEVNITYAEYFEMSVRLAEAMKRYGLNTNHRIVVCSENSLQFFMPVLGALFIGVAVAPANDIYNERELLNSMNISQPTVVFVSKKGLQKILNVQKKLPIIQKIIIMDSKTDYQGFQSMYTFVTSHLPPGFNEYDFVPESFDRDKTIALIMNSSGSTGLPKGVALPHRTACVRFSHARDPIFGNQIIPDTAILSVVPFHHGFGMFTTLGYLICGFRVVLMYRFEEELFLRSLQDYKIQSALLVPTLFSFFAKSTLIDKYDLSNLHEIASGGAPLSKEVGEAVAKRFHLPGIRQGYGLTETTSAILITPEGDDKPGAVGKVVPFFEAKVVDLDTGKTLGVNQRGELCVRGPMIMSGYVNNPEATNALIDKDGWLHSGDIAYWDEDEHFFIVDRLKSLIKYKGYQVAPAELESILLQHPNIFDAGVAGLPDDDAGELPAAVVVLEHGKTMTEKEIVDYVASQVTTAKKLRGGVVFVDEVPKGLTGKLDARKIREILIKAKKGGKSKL

## O=[N+]([O-])c1ccc(C2Oc3ccccc3C3CC(c4ccccc4)=NN32)s1 (configuration not stated)
[1]
  CC50: 31.5 µM (active)

## CCCCCCCCNC(=O)c1cccnc1SCC(=O)Nc1ccc(OC)cc1OC
[2]
  EC50: 12.3 µM (active)
[3]
  EC50: 12.6 µM (active)

## Cc1ccc(C)c(-c2nn(-c3cc(N4CCN(CCO)CC4)ccc3[N+](=O)[O-])c(=O)c3ccccc23)c1
[1]
  CC50: 31.4 µM (active)
[4]
  EC50: > 60 µM (not active)
[5]
  EC50: 2.23 µM (active)

## Cc1ccc([N+](=O)[O-])cc1N=C(S)NCCc1ccccc1
[6]
  IC50: 13.1 µM (active)
[7]
  IC50: 12.1 µM (active)

## O=C(Nc1ncc([N+](=O)[O-])s1)c1ccc2c(c1)OCO2
[8]
  EC50: 13.5 µM (active)
[9]
  EC50: 2.39 µM (active)
[10]
  EC50: 3.42 µM (active)
[11]
  AC50: 21.2 µM (active)
[12]
  EC50: > 150 µM (inconclusive)
[13]
  EC50: 7.3 µM (active)
[14]
  EC50: 4.23 µM (active)
[15]
  IC50: 34.4 µM (active)
[16]
  CC50: 28.9 µM (active)
[17]
  EC50: 0.324 µM (active)
[18]
  EC50: 16.5 µM (active)
[19]
  EC50: 10.3 µM (active)
[20]
  EC50: 14.1 µM (active)

## Cc1ccc(Cl)cc1N1CCN(C(=O)C2CCC(=O)N(C3CCCCCC3)C2)CC1 (configuration not stated)
[21]
  AC50: 54.8 µM (active)
[1]
  CC50: > 40 µM (active)
[22]
  AC50: 3.41 µM (active)
[23]
  AC50: 3.14 µM (active)

## COc1ccc(C2CC(c3cccs3)n3nc(N)nc3N2)cc1 (configuration not stated)
[24]
  IC50: > 79 µM (inactive)

## COC(=O)c1cccc(S(=O)(=O)N(Cc2ccco2)Cc2cc3cc(OC)ccc3nc2O)c1
[24]
  IC50: 31.7 µM (inactive)

## CCN(CC)S(=O)(=O)c1ccc(Cc2ncc(C(F)(F)F)cc2Cl)s1
[25]
  EC50: 9.84 µM (active)

## CC(C)(C)OC(=O)CNC(=O)c1[nH]cnc1C(=O)NCC(=O)OCc1ccccc1
[24]
  IC50: > 79 µM (inactive)

## O=C(Cn1c(=O)c2sccc2n(Cc2ccc([N+](=O)[O-])cc2)c1=O)NCCc1ccccc1
[6]
  IC50: 4.79 µM (active)
[7]
  IC50: 5.6 µM (active)

## COc1ccc(NC(=O)N(CCCN(C)C)Cc2cc3cc(OC)ccc3nc2O)cc1
[24]
  IC50: > 79 µM (inactive)
